Structures can show the parent of a compound that is named as a salt.
Experiments:
[1] = test system: croton oil-induced edema of the right auricles of the mice; assay: Croton oil-induced ear edema in mice (antiinflammatory effect); format: in vivo, ICR mice (10-week old male)
Description: A test was performed for examining antiinflammatory effect observed by concurrent use of the present compound and an adrenocortical hormone. In addition, dose-response test was carried out for the adrenocortical hormone.
(§1) 0.012% betamethasone valerate (dissolved in methanol).
0.5% EPC-K (dissolved in methanol).
Twenty μl of croton oil (6%) dissolved in acetone was applied on the outer surface of the right auricles of the mice to induce edema. Fifteen minutes later, 20 μl of one of the test materials was applied to each of the right auricles.
Four hours after the application of the test materials, the thickness of the right auricles of the mice were measured using a dial thickness gauge and edema rates were determined by comparing their thickness with that before induction.

Acute toxicity (LD50) = conditions: in vivo, rat
[2] = Body weight, thymus and spleen weight in hairless mice after repeated topical application (reduction of side effects of an adrenocortical hormone); conditions: EPC-K (0.5%) administered concurrently with betamethasone valerate (0.012%), two weeks
Description: A test was carried out to examine the effect of the present compound to reduce side effects of an adrenocortical hormone.
as §1
0.012% betamethasone valerate +0.5% EPC-K (dissolved in methanol).
10-week old female HR-1 hairless mice purchased from SLC Japan were used for the test. One hundred μl of the test materials were applied to the respective mice on the whole area of their back skin. This procedure was repeated once a day for two weeks, and then the body weight and the weight of the thymus and the spleen were determined.

[3] = Table 4, 4 h after 20 μl topical, 0.5% EPC-K, 0.012% betamethasone valerate, or both, mean ± S.D. (n = 23-27), methanol 116.1 ± 23.3
[4] = Table 4, edema inhibition 4 h after 20 μl topical, 0.5% EPC-K, 0.012% betamethasone valerate, or both, n = 23-27

Cc1c(C)c2c(c(C)c1OP(=O)(O)OC1=C(O)[C@@H]([C@@H](O)CO)OC1=O)CCC(C)(CCCC(C)CCCC(C)CCCC(C)C)O2 (mixture of isomers) [EPC-K, potassium salt of phosphodiester of L-ascorbic acid and DL-α-tocopherol]
Edema rate(%) [1, 3]: 109.1 ± 26.3%
Inhibition rate(%) [1, 4]: 6.0%
LD50 (Acute toxicity (LD50); iv): > 100 mg/kg
LD50 (Acute toxicity (LD50); po): > 5000 mg/kg
atrophy of spleen (by betamethasone valerate) [2]: suppressed
atrophy of thymus (by betamethasone valerate) [2]: suppressed
body weight reduction (by betamethasone valerate) [2]: suppressed

CCCCC(=O)O[C@]1(C(=O)CO)[C@@H](C)C[C@H]2[C@@H]3CCC4=CC(=O)C=C[C@]4(C)[C@@]3(F)[C@@H](O)C[C@@]21C [Betamethasone valerate, betamethasone valerate]
Edema rate(%) [1, 3]: 87.3 ± 21.7%
Inhibition rate(%) [1, 4]: 27.9%
Edema rate(%) ([1]; Table 5 dose-response, 0.012% betamethasone valerate, 4 h, mean ± S.D. (n = 8-9), methanol 138.8 ± 18.5): 101.6 ± 15.3%
Inhibition rate(%) ([1]; Table 5 dose-response, 0.012% betamethasone valerate, 4 h, n = 8-9): 26.8%
Edema rate(%) ([1]; Table 5 dose-response, 0.040% betamethasone valerate, 4 h, mean ± S.D. (n = 8-9), methanol 138.8 ± 18.5): 86.5 ± 30.3%
Inhibition rate(%) ([1]; Table 5 dose-response, 0.040% betamethasone valerate, 4 h, n = 8-9): 37.7%
Edema rate(%) ([1]; Table 5 dose-response, 0.12% betamethasone valerate, 4 h, mean ± S.D. (n = 8-9), methanol 138.8 ± 18.5): 52.8 ± 13.3%
Inhibition rate(%) ([1]; Table 5 dose-response, 0.12% betamethasone valerate, 4 h, n = 8-9): 62.0%
concentration of betamethasone valerate that would give an effect comparable to 0.012% betamethasone valerate plus 0.5% EPC-K ([1]; calculated from the dose-response test (Table 5)): 0.088%
